Assay results published in patent publication US8709381B2, “Compound containing a carbon or an oxygen isotope, preparation and use thereof, and composition comprising thereof” (Beijing Top Grade Medical Equipment Co., Ltd, priority 2010, dated 2014).

How the values were obtained:
porphyrin synthesis = details: in vivo
Text: Example 4 relates to a study of imaging of porphyrin synthesis in-vivo.
Porphyrin plays an important role in an organism. It is important for the study of physiological conditions, biochemical condition, and diseases to know the porphyrin synthesis in vivo. 5-ALA is a precursor of the porphyrin synthesis. After it is irradiated by photons of 50 MV with a dosage of 30 Gy (gray), a ^12C atom of the 5-ALA molecule is converted into an ^11C positron nuclide and a ^16O atom therein is converted into an ^15O positron nuclide.

SD rats = assay: distribution after tail vein injection of 11C/15O-labeled adriamycin; format: in vivo, rat; details: labeled with 11C and 15O
Experimental: (§1) The details of the procedure of the present example are as follow: 3 mg of adriamycin is irradiated by 50 MV of photons with a dosage of 30 Gy (gray). […] A ^12C atom of the adriamycin molecule is converted into a ^11C positron nuclide and an ^16O atom therein is converted into a ^15O positron nuclide.

[1] = fluorescence analysis of structure after photon irradiation; format: physicochemical; details: 3 mg irradiated by 50 MV photons, 30 Gy
Experimental: as §1

NCC(=O)CCC(=O)O [5-ALA]
main organ of porphyrin synthesis (porphyrin synthesis): liver is the main organ of porphyrin synthesis

COc1cccc2c1C(=O)c1c(O)c3c(c(O)c1C2=O)C[C@@](O)(C(=O)CO)C[C@@H]3O[C@H]1C[C@H](N)[C@H](O)[C@H](C)O1 [adriamycin]
site of accumulation in vivo (SD rats): accumulates at the heart
structure after the irradiation (fluorescence analysis) [1]: no change in the structure
